Results published in ChEMBL document CHEMBL5291721, “A preclinical secondary pharmacology resource illuminates target-adverse drug reaction associations of marketed drugs” (Nat Commun, 2023).

Key:
[1] = molecular target: T1, Peroxisome proliferator-activated receptor alpha (Homo sapiens, UniProt Q07869); type: functional
T1 sequence (Q07869 whole entry): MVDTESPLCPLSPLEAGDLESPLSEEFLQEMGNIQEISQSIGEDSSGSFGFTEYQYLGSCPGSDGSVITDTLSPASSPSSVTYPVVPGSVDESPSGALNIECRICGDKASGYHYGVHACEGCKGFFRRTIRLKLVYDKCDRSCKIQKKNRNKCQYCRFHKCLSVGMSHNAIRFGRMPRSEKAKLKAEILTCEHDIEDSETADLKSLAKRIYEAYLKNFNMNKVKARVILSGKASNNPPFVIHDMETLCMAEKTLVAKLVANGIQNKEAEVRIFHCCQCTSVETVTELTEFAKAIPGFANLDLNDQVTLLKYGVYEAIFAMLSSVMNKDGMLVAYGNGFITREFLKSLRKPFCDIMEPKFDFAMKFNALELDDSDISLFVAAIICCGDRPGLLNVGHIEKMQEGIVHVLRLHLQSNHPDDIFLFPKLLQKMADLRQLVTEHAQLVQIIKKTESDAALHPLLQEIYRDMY

[2] = molecular target: 5-hydroxytryptamine receptor 2B (Homo sapiens, UniProt P41595)
Sequence of 5-hydroxytryptamine receptor 2B (P41595 whole entry): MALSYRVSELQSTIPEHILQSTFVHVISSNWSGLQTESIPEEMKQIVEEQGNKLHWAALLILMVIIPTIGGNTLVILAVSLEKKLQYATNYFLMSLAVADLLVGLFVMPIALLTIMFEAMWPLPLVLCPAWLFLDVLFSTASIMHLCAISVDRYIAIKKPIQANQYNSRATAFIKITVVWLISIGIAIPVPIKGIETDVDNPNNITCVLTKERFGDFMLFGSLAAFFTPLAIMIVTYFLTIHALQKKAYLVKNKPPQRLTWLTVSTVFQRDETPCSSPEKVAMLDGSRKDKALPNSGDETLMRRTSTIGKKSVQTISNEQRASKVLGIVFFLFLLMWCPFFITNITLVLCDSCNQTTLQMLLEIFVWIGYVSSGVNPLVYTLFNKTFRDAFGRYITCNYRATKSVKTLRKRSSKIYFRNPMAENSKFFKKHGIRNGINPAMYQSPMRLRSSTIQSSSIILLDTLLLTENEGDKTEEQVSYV

[3] = molecular target: T2, Type-1 angiotensin II receptor (Homo sapiens, UniProt P30556)
T2 sequence (P30556 whole entry): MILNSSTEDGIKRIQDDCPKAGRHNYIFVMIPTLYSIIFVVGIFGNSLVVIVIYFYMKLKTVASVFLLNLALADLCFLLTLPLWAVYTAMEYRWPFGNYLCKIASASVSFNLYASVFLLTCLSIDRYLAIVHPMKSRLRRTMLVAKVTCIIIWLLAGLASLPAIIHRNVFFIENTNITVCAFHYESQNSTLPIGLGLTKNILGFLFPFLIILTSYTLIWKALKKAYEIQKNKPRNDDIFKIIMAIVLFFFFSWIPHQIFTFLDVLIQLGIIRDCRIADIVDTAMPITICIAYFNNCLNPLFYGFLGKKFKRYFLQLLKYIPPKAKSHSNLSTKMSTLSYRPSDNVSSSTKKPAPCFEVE

Histamine H3 receptor = Histamine H3 receptor (Homo sapiens, UniProt Q9Y5N1)
Sequence of Histamine H3 receptor (Q9Y5N1 whole entry): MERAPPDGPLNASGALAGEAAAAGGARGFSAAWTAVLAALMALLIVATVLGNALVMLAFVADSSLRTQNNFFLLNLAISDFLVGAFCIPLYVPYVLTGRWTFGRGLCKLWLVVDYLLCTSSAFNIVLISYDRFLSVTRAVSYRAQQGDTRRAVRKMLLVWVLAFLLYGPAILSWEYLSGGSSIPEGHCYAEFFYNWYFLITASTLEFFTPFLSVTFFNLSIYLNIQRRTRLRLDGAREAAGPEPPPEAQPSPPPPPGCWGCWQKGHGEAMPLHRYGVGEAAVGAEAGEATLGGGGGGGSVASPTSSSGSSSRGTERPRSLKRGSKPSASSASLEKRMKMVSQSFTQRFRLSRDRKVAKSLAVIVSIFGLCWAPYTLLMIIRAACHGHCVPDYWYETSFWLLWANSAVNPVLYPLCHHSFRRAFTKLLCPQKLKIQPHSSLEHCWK

[4] = molecular target: T3, Alpha-1A adrenergic receptor (Homo sapiens, UniProt P35348); type: functional, cell-based
T3 sequence (P35348 whole entry): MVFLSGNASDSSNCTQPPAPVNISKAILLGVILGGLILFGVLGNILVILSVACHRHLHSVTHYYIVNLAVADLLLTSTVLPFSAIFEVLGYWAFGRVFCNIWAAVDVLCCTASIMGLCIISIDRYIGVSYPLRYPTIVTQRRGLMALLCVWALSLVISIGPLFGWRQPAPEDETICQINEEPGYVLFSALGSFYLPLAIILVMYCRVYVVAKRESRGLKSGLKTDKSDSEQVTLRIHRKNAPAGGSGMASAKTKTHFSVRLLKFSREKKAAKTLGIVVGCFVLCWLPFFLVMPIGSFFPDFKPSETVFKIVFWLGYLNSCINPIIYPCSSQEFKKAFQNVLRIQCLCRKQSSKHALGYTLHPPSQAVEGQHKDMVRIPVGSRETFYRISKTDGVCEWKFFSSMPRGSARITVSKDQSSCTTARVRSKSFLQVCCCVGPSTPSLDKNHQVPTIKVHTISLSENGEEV

Prothrombin = Prothrombin (Homo sapiens, UniProt P00734); type: functional
Adenosine receptor A3 = molecular target: T4, Adenosine receptor A3 (Homo sapiens, UniProt P0DMS8)
T4 sequence (P0DMS8 whole entry): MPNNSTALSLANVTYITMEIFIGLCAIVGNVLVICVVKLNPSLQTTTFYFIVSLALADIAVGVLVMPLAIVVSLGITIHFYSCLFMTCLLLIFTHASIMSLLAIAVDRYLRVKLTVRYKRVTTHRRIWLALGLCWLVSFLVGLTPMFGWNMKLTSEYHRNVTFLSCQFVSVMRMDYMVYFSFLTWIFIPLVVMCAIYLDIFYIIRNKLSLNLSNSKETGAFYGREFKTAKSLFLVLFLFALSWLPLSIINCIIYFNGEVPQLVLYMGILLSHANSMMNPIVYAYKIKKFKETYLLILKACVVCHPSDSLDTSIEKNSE

[5] = molecular target: Vascular endothelial growth factor receptor 2 (Homo sapiens, UniProt P35968); type: functional
Sequence of Vascular endothelial growth factor receptor 2 (P35968 whole entry): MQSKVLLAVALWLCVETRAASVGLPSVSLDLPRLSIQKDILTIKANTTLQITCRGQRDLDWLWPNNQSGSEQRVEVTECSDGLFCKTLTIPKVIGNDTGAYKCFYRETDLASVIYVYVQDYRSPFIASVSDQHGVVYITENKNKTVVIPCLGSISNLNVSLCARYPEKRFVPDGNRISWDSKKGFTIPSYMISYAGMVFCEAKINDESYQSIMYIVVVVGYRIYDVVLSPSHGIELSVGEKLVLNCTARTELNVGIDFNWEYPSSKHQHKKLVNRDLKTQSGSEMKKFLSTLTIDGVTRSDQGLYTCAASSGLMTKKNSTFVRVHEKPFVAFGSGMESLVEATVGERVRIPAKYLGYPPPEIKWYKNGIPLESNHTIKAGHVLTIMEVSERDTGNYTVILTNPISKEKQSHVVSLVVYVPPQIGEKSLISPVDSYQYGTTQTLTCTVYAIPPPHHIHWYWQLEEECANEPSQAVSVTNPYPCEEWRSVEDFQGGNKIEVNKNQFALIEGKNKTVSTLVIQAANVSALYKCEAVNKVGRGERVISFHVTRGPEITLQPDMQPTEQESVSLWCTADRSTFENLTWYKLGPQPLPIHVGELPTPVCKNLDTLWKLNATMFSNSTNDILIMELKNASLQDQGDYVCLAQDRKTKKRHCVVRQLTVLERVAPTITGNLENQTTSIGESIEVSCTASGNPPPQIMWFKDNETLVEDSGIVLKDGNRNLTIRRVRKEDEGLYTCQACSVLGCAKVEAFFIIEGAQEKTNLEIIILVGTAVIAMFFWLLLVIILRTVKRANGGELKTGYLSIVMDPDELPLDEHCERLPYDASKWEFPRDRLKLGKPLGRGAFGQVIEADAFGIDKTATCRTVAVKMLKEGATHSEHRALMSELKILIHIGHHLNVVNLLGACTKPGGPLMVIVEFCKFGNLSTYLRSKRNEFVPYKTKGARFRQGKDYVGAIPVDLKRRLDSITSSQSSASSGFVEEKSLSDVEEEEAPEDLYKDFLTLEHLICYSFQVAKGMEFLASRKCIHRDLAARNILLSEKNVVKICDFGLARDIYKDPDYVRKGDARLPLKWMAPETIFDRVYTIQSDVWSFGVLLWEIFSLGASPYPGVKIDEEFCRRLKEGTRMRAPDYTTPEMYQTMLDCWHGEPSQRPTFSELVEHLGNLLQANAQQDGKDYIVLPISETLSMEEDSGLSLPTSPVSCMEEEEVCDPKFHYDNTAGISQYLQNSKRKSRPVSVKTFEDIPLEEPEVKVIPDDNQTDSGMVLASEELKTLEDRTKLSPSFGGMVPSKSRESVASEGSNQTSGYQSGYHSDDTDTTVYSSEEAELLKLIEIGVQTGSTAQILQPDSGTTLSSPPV

D(1A) dopamine receptor = D(1A) dopamine receptor (Homo sapiens, UniProt P21728)
Sequence of D(1A) dopamine receptor (P21728 whole entry): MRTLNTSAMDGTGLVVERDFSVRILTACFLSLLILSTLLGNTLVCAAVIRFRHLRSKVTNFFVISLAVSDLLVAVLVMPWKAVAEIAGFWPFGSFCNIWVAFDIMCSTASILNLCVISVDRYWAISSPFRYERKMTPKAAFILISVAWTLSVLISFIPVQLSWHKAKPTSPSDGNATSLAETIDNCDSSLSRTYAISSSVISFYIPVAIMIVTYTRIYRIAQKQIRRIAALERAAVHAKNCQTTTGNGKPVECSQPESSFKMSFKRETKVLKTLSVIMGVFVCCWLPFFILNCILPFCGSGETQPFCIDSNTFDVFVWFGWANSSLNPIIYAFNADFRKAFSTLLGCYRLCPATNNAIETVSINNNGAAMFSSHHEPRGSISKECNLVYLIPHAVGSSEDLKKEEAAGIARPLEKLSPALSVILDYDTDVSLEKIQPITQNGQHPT

D(3) dopamine receptor = D(3) dopamine receptor (Homo sapiens, UniProt P35462)
Sequence of D(3) dopamine receptor (P35462 whole entry): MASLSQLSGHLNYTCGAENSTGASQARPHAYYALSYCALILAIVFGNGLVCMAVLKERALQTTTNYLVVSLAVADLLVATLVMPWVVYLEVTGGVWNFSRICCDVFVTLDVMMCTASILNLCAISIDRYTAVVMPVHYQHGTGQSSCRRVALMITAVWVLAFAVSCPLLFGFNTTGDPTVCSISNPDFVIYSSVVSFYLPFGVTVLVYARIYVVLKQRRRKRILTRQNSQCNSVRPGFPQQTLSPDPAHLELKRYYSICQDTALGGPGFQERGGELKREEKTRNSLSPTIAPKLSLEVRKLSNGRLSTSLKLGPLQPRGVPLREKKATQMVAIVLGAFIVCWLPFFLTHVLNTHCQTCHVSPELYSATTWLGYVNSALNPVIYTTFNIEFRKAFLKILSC

[6] = molecular target: Gamma-aminobutyric acid receptor subunit alpha-1/alpha-2/beta-2/gamma-2 (Homo sapiens, UniProt P14867+P18507+P47869+P47870); type: protein-complex assay
Sequence of Gamma-aminobutyric acid receptor subunit alpha-1/alpha-2/beta-2/gamma-2 (P14867 whole entry): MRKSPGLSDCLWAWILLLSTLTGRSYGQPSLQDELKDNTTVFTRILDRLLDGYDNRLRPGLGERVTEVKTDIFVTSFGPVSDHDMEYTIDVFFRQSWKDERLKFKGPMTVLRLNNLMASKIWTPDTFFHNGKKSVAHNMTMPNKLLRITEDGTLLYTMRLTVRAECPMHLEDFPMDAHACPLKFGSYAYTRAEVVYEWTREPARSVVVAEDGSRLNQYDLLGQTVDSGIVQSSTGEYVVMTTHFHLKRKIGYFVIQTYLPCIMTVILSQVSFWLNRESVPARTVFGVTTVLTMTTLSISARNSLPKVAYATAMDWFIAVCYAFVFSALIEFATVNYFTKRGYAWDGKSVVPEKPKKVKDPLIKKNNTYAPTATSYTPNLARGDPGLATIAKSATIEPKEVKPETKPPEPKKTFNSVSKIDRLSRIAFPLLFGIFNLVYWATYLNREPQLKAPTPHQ
Sequence of Gamma-aminobutyric acid receptor subunit alpha-1/alpha-2/beta-2/gamma-2 (P47870 whole entry): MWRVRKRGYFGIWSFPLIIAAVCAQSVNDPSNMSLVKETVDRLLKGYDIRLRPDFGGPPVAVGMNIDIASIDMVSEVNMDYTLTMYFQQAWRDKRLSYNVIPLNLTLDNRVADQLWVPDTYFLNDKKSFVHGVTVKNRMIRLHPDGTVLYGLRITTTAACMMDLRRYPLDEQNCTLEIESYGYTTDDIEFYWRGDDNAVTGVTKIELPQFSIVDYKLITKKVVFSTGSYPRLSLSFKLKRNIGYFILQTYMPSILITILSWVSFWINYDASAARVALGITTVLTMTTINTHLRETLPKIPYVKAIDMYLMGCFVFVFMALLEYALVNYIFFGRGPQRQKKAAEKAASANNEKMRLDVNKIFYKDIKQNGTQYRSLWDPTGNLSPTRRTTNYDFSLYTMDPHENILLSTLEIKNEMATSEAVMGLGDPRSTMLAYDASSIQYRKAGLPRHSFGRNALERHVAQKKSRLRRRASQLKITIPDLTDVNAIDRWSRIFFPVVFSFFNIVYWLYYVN
Sequence of Gamma-aminobutyric acid receptor subunit alpha-1/alpha-2/beta-2/gamma-2 (P18507 whole entry): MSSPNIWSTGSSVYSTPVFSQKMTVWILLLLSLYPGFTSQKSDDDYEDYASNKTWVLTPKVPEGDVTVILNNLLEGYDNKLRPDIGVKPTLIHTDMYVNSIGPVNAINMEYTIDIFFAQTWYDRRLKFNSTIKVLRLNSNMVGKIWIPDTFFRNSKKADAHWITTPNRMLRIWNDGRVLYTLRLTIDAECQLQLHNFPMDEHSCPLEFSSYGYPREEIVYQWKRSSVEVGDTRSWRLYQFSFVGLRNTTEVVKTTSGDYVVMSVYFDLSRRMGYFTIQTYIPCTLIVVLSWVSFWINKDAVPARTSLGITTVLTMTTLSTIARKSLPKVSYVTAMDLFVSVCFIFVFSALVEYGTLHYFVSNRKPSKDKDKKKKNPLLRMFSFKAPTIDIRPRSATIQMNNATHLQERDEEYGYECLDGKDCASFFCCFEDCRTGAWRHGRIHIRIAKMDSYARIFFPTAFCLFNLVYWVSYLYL
Sequence of Gamma-aminobutyric acid receptor subunit alpha-1/alpha-2/beta-2/gamma-2 (P47869 whole entry): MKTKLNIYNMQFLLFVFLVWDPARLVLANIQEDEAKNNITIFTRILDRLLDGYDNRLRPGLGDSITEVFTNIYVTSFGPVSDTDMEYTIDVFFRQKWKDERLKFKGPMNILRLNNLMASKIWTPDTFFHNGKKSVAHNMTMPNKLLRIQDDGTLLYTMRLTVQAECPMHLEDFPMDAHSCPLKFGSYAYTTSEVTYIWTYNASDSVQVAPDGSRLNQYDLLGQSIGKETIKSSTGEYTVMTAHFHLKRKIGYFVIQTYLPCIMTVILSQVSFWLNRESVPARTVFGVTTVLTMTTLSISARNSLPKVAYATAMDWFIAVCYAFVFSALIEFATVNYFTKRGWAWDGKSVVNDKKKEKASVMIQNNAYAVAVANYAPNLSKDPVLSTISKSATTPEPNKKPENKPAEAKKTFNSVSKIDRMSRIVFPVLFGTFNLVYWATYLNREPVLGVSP

Estrogen receptor [7] = molecular target: T5, Estrogen receptor (Homo sapiens, UniProt P03372)
T5 sequence (P03372 whole entry): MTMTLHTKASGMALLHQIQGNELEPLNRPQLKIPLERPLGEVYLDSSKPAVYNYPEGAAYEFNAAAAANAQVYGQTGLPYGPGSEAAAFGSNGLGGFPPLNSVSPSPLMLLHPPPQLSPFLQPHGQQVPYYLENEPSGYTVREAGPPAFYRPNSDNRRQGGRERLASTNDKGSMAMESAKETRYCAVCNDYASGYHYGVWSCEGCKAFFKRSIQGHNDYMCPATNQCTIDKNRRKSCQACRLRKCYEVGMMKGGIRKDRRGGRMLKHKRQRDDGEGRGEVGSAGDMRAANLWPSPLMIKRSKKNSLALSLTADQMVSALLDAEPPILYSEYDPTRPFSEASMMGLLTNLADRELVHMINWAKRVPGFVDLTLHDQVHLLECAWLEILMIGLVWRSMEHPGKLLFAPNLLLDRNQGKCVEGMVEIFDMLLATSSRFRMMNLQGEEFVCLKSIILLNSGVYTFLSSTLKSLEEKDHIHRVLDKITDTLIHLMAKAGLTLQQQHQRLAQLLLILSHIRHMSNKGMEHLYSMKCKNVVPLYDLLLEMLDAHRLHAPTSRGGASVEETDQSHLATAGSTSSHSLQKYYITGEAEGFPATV

Estrogen receptor [8] = molecular target: T5, Estrogen receptor; type: functional
Estrogen receptor [9] = molecular target: T5, Estrogen receptor; type: functional; remark: listed apart in the source
Also: assay procedure not described here.

Structure (SMILES): CCOC(=O)C(C)(C)Oc1ccc(Cl)cc1 [CLOFIBRATE]
- AC50 [1]: > 30 µM

Structure (SMILES): Fc1ccc([C@@H]2CCNC[C@H]2COc2ccc3c(c2)OCO3)cc1 [PAROXETINE]
- AC50 [2]: 10.6 µM

Structure (SMILES): O=c1c(O)c(-c2ccc(O)c(O)c2)oc2cc(O)cc(O)c12 [QUERCETIN]
- AC50 [3]: > 100 µM

Structure (SMILES): CCN(CC)CCCC(C)Nc1c2ccc(Cl)cc2nc2ccc(OC)cc12 (centres undefined) [QUINACRINE]
- AC50 (Histamine H3 receptor): 0.693 µM
- AC50 [4]: > 1 µM
- AC50 (Prothrombin): > 30 µM
- AC50 (Adenosine receptor A3): > 30 µM
- AC50 [5]: > 30 µM
- AC50 (D(1A) dopamine receptor): 12.3 µM
- AC50 (D(3) dopamine receptor): 7.05 µM
- AC50 [6]: > 30 µM
- AC50 (Estrogen receptor [7]): > 30 µM

Structure (SMILES): CCOC(=O)[C@@H](N)Cc1ccc(-c2cc(O[C@H](c3ccc(Cl)cc3-n3ccc(C)n3)C(F)(F)F)nc(N)n2)cc1 [TELOTRISTAT ETHYL]
- AC50 (Estrogen receptor [8]): > 30 µM
- AC50 (Estrogen receptor [9]): > 30 µM
